# Data taken from EP4273142A1 (Université de Bretagne Occidentale, priority 2022, dated 2023).
# “Also recorded” adds a separate entry of the source. Like-named read-outs stand apart in the source and are kept apart here. Marks after values point to notes of the source that are not given here.
# Columns and labels:
# [1] = cited from earlier work
# [2] = Ligand protonation equilibria by potentiometric titration; format: physicochemical; settings: 1.0 m kcl
# [3] = Pd(II) complexation equilibria by UV spectrophotometry and potentiometry; settings: for log KML: stability constant of the Pd(II) complex, 25°C in 1.0 M KCl
# [4] = Acid-mediated dissociation (cold inertness) followed by 1H NMR; format: physicochemical; settings: Pd(II) complex, 5 M DCl (HCl 5M), 90°C, up to five months, 0.05M
# [5] = EDTA challenge (transchelation) of 109Pd-labelled complexes, radio-HPLC; settings: pbs, 1000 eq edta, pH 7
# [6] = pbs, 1000 eq edta, 24 h, pH 7
# [7] = Table 5, stepwise protonation constant in log units, read-out: H2L + H^+ ⇄H3L
# [8] = Table 5, stepwise protonation constant in log units, read-out: H3L + H^+ ⇄H4L
# [9] = Table 5, stepwise protonation constant in log units, read-out: HL + H^+ ⇄H2L
# [10] = Table 5, stepwise protonation constant in log units, read-out: L + H^+ ⇄HL
# [11] = Table 6, overall constant in log units, read-out: L + H^+ ⇄HL
# [12] = Table 5, complexation constant in log units, […], 1.0 M (K,H)Cl
# [13] = Table 6, overall formation constant in log units, […], 1.0 M (K,H)Cl
Compound,"pKa [2, 7]","pKa [2, 8]","pKa [2, 9]","pKa [2, 10]","pKa [2, 11]",log KML [3],"Pd^2+ + L ⇄PdL [3, 12]","Pd^2+ + L ⇄PdL [3, 13]",Dissociation [4],other results
OCCN1CCCN(CCO)CCN(CCO)CCCN(CCO)CC1 [tetra(2-hydroxyethyl) cyclam],,,,,,,,,,"log KML ([1]; Pd(II) complex, Hay et al. 1987): 18.32"
"c1ccc(CN2CCCNCCNCCCNCC2)cc1 [TE1Bn, reference compound]",2.21,2.89,9.39,11.3,11.3,> 43,> 43,>43,,
"C1CNCCNCCCNCCNC1.[Cl-].[Cl-].[Pd+2] [[Pd(cyclam)]^2+, Palladium(II) 1,4,8,11-tetraazacyclotetradecane dichloride, reference compound]",,,,,,,,,"neither [Pd(cyclam)]^2+ nor [Pd(TE1PA)]^2+ present any significant dissociation; also recorded: HCl 5M, 90°C: Inert","log KML ([1]; Pd(II) cyclam complex, 25°C in 0.1 M NaClO4, Harrington et al. 2005, value estimated): log KML = 56,9; degraded at 24 h [5]: 13%"

# Continued, in another order:
"pKa [2, 7]","pKa [2, 8]","pKa [2, 9]","pKa [2, 10]","pKa [2, 11]",log KML [3],Compound,"Pd^2+ + L ⇄PdL [3, 12]","Pd^2+ + L ⇄PdL [3, 13]",Dissociation [4],other results
3.05,2.28,10.1,11.1,11.1,,"O=C(O)c1cccc(CN2CCCNCCNCCCNCC2)n1 [TE1PA, 6-((1,4,8,11-tetraazacyclotetradecan-1-yl)methyl)picolinate]",,,,"pKa ([2]; Table 5, stepwise protonation constant in log units, read-out: H4L + H^+ ⇄H5L): 1.69; PdHL + H^+ ⇄PdH2L ([3]; Table 5, stepwise protonation constant of the Pd(II) complex in log units, […], 1.0 M KCl): 1.8(1)"
2.65,2.83,10.4,11.5,11.5,42.6,c1ccc(CN2CCCNCCNCCCNCC2)nc1 [TE1Py],42.6(1),42.6(1),,"Pd^2+ + L + H^+ ⇄PdHL ([3]; Table 6, overall formation constant in log units, determined by UV spectrophotometry, pH 0-1.5, […], 1.0 M (K,H)Cl): 44.2(1) ^b"
,,,,,log KML = 38.4,"Palladium (II) 6-methylpicolinate-1,4,8,11-tetraazacyclotetradecane tetrachloropalladate [[Pd(TE1PA)]^2+]",,,"neither [Pd(cyclam)]^2+ nor [Pd(TE1PA)]^2+ present any significant dissociation; also recorded: HCl, 5M, 90°C: Inert",demetallation [6]: 9% demetallation
